According to patent US8546608B2, “Proteasome inhibitors and methods of using the same” (Cephalon, Inc., priority 2003, dated 2013):

Tests used:
[1] = target: T1, 20S Human Erythrocyte Proteasome (HEP) (Homo sapiens, UniProt P20618+P28074); experiment: Chymotrypsin-like activity of 20S Human Erythrocyte Proteasome (HEP), IC50 determination; assay type: biochemical; conditions: assay of Example C, inhibition of HEP
T1 construct: 20S Human Erythrocyte Proteasome (HEP), purchased from Immatics Biotechnologies Inc; purchased Immatics Biotechnologies Inc., Tübingen, Germany; host or cells: human erythrocytes (natural source)
In short: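 20S proteasome at 0.2 μg/mL (about 0.6 nM catalytic sites) in 20 mM Tris with 0.04% SDS, preincubated 15 min at 37° C with inhibitor before Suc-LLVY-AMC (100 μM final). AMC fluorescence read in the linear range; triplicates, IC50 from concentration series.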

[2] = target: T2, proteasome in Molt-4 cells (human leukemia) (Homo sapiens, UniProt P20618+P28074); assay type: cell-based; conditions: assay of Example E, inhibition of MOLT4; read-out: MOLT4 (EC50)
T2 sequence (P28074 60-263): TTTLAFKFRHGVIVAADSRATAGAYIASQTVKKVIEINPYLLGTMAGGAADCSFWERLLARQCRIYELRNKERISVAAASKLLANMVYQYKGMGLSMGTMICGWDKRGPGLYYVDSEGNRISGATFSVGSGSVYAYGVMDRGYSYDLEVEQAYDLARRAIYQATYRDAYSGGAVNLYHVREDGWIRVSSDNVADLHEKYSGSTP
T2 sequence (P20618 29-241): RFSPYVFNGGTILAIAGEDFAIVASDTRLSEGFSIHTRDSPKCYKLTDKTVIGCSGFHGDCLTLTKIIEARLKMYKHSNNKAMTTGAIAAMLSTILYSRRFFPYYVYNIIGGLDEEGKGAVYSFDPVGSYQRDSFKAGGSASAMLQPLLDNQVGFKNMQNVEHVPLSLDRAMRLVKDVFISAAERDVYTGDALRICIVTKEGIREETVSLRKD
In short: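 Intact Molt-4 cells (6×10^6 cells/mL) in HEPES-buffered saline were preincubated with inhibitor 15 min at 37 °C, then given cell-permeable MeOSuc-FLF-AFC at 25 μM final.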

In the case of `CC(C)C[C@H](NC(=O)[C@H](CCCNC(=N)N[N+](=O)[O-])NC(=O)CC1CCCCCC1)B(O)O` [E.2.29, Boronic acid, [(1R)-1-[[(2S)-5-[[imino(nitroamino)methyl]amino]-2-[(2-cycloheptylacetyl)amino]-1-oxopentyl]amino]-3-methylbutyl]], the IC50 [1] is reported as < 10 nM and the EC50 [2] is reported as 2000 to 10000 nM.
In the case of `CC(C)CC(=O)N[C@@H](CCCNC(=N)N[N+](=O)[O-])C(=O)N[C@@H](CC(C)C)B(O)O` [E.2.31, Boronic acid, [(1R)-1-[[(2S)-5-[[imino(nitroamino)methyl]amino]-2-[(3-methylbutanoyl)amino]-1-oxopentyl]amino]-3-methylbutyl]], the IC50 [1] is reported as < 10 nM and the EC50 [2] is reported as > 10000 nM.
In the case of `CC(C)C[C@H](NC(=O)[C@H](CCCNC(=N)N[N+](=O)[O-])NC(=O)CCc1ccccc1)B(O)O` [E.2.32, Boronic acid, [(1R)-1-[[(2S)-5-[[imino(nitroamino)methyl]amino]-2-[(3-phenylpropanoyl)amino]-1-oxopentyl]amino]-3-methylbutyl]], the IC50 [1] is reported as < 10 nM and the EC50 [2] is reported as > 10000 nM.
With `Cc1cccc(/C=C/C(=O)N[C@@H](CCCNC(=N)N[N+](=O)[O-])C(=O)N[C@@H](CC(C)C)B(O)O)c1` [E.2.33, Boronic acid, [(1R)-1-[[(2S)-5-[[imino(nitroamino)methyl]amino]-2-[[(E)-3-(3-methylphenyl)acryl]amino]-1-oxopentyl]amino]-3-methylbutyl]] the IC50 [1] was < 10 nM and the EC50 [2] was 2000 to 10000 nM.
With `CC(C)C[C@H](NC(=O)[C@H](CCCNC(=N)N[N+](=O)[O-])NC(=O)CC12CC3CC(CC(C3)C1)C2)B(O)O` [E.2.34] the IC50 [1] was < 10 nM and the EC50 [2] was 2000 to 10000 nM.
`CC(C)C[C@H](NC(=O)[C@H](CCCNC(=N)N[N+](=O)[O-])NC(=O)Cc1ccccc1)B(O)O` [E.2.36, Boronic acid, [(1R)-1-[[(2S)-5-[[imino(nitroamino)methyl]amino]-2-[(2-phenylacetyl)amino]-1-oxopentyl]amino]-3-methylbutyl]] was tested, and the IC50 [1] was < 10 nM and the EC50 [2] was > 10000 nM.
In the case of `COc1ccc(CC(=O)N[C@@H](CCCNC(=N)N[N+](=O)[O-])C(=O)N[C@@H](CC(C)C)B(O)O)cc1` [E.2.37, Boronic acid, [(1R)-1-[[(2S)-5-[[imino(nitroamino)methyl]amino]-2-[[2-(4-methoxyphenyl)acetyl]amino]-1-oxopentyl]amino]-3-methylbutyl]], the IC50 [1] is reported as < 10 nM and the EC50 [2] is reported as > 10000 nM.
In the case of `CC(C)C[C@H](NC(=O)[C@H](CCCNC(=N)N[N+](=O)[O-])NC(=O)Cc1ccc(Br)cc1)B(O)O` [E.2.38, Boronic acid, [(1R)-1-[[(2S)-5-[[imino(nitroamino)methyl]amino]-2-[[2-(4-bromophenyl)acetyl]amino]-1-oxopentyl]amino]-3-methylbutyl]], the IC50 [1] is reported as < 10 nM and the EC50 [2] is reported as 2000 to 10000 nM.
For `Cc1ccc(F)c(C(=O)N[C@@H](CCCNC(=N)N[N+](=O)[O-])C(=O)N[C@@H](CC(C)C)B(O)O)c1` [E.2.40, Boronic acid, [(1R)-1-[[(2S)-5-[[imino(nitroamino)methyl]amino]-2-[(2-fluoro-5-methylbenzoyl)amino]-1-oxopentyl]amino]-3-methylbutyl]], the IC50 [1] was < 10 nM and the EC50 [2] was 2000 to 10000 nM.
For `CC(C)C[C@H](NC(=O)[C@H](CCCNC(=N)N[N+](=O)[O-])NC(=O)CC1CC2CCC1C2)B(O)O` (stereo partly drawn) [E.2.41, Boronic acid, [(1R)-1-[[(2S)-5-[[imino(nitroamino)methyl]amino]-2-[[2-(bicyclo[2.2.1]hept-2-yl)acetyl]amino]-1-oxopentyl]amino]-3-methylbutyl]], the IC50 [1] was < 10 nM and the EC50 [2] was > 10000 nM.
In the case of `CC(C)C[C@H](NC(=O)[C@H](CCCNC(=N)N[N+](=O)[O-])NC(=O)CCCOc1ccccc1)B(O)O` [E.2.42, Boronic acid, [(1R)-1-[[(2S)-5-[[imino(nitroamino)methyl]amino]-2-[(4-phenoxybutanoyl)amino]-1-oxopentyl]amino]-3-methylbutyl]], the IC50 [1] is reported as < 10 nM and the EC50 [2] is reported as > 10000 nM.
In the case of `CCCCCCCCCCCCC(=O)N[C@@H](CCCNC(=N)N[N+](=O)[O-])C(=O)N[C@@H](CC(C)C)B(O)O` [E.2.45, Boronic acid, [(1R)-1-[[(2S)-5-[[imino(nitroamino)methyl]amino]-2-[(tridecanoyl)amino]-1-oxopentyl]amino]-3-methylbutyl]], the IC50 [1] is reported as < 10 nM and the EC50 [2] is reported as < 200 nM.
`CC(C)C[C@H](NC(=O)[C@H](CCCNC(=N)N[N+](=O)[O-])NC(=O)CCCCCCCc1ccccc1)B(O)O` [E.2.46, Boronic acid, [(1R)-1-[[(2S)-5-[[imino(nitroamino)methyl]amino]-2-[(8-phenyloctanoyl)amino]-1-oxopentyl]amino]-3-methylbutyl]] was tested, and the IC50 [1] was < 10 nM and the EC50 [2] was 200 to 2000 nM.
For `CC(C)C[C@H](NC(=O)[C@H](CCCNC(=N)N[N+](=O)[O-])NC(=O)CCC(=O)c1ccc(S(C)(=O)=O)cc1)B(O)O` [E.2.47, Boronic acid, [(1R)-1-[[(2S)-5-[[imino(nitroamino)methyl]amino]-2-[[4-(4-methanesulfonylphenyl)-4-oxobutanoyl]amino]-1-oxopentyl]amino]-3-methylbutyl]], the IC50 [1] was < 10 nM and the EC50 [2] was > 10000 nM.
`CC(C)C[C@H](NC(=O)[C@H](CCCNC(=N)N[N+](=O)[O-])NC(=O)CCSc1ccc2ccccc2c1)B(O)O` [E.2.48, Boronic acid, [(1R)-1-[[(2S)-5-[[imino(nitroamino)methyl]amino]-2-[[3-(naphthalen-2-ylsulfanyl)-propanoyl]amino]-1-oxopentyl]amino]-3-methylbutyl]] was tested, and the IC50 [1] was < 10 nM and the EC50 [2] was 200 to 2000 nM.
For `CC(C)C[C@H](NC(=O)[C@H](CCCNC(=N)N[N+](=O)[O-])NC(=O)CSCc1ccccc1)B(O)O` [E.2.49, Boronic acid, [(1R)-1-[[(2S)-5-[[imino(nitroamino)methyl]amino]-2-[[2-[(phenylmethyl)sulfanyl]acetyl]amino]-1-oxopentyl]amino]-3-methylbutyl]], the IC50 [1] was < 10 nM and the EC50 [2] was > 10000 nM.
For `CSCCC(=O)N[C@@H](CCCNC(=N)N[N+](=O)[O-])C(=O)N[C@@H](CC(C)C)B(O)O` [E.2.50, Boronic acid, [(1R)-1-[[(2S)-5-[[imino(nitroamino)methyl]amino]-2-[(3-Methylsulfanylpropanoyl)amino]-1-oxopentyl]amino]-3-methylbutyl]], the IC50 [1] was < 10 nM and the EC50 [2] was > 10000 nM.
In the case of `CC(=O)N1CCC[C@H]1C(=O)N[C@@H](CCCNC(=N)N[N+](=O)[O-])C(=O)N[C@@H](CC(C)C)B(O)O` [E.2.51, Boronic acid, [(1R)-1-[[(2S)-5-[[imino(nitroamino)methyl]amino]-2-[((2S)-1-acetylpyrrolidine-2-carbonyl)amino]-1-oxopentyl]amino]-3-methylbutyl]], the IC50 [1] is reported as < 100 nM and the EC50 [2] is reported as > 10000 nM.
For `CC(C)C[C@H](NC(=O)[C@H](CCCNC(=N)N[N+](=O)[O-])NC(=O)/C=C/c1ccccc1Br)B(O)O` [E.2.52, Boronic acid, [(1R)-1-[[(2S)-5-[[imino(nitroamino)methyl]amino]-2-[[trans-3-(2-bromophenyl)acryl]amino]-1-oxopentyl]amino]-3-methylbutyl]], the IC50 [1] was < 10 nM and the EC50 [2] was 2000 to 10000 nM.
For `CC(C)C[C@H](NC(=O)[C@H](CCCNC(=N)N[N+](=O)[O-])NC(=O)Cn1cnnn1)B(O)O` [E.2.53, Boronic acid, [(1R)-1-[[(2S)-5-[[imino(nitroamino)methyl]amino]-2-[[2-(tetrazol-1-yl)acetyl]amino]-1-oxopentyl]amino]-3-methylbutyl]], the IC50 [1] was < 100 nM and the EC50 [2] was > 10000 nM.
